Reference: patent US10611740B2, “Aryl dihydro-2H-benzo[b][1,4]oxazine sulfonamide and related compounds for use as agonists of RORγ and the treatment of disease” (Lycera Corporation, priority 2015, dated 2020)

How the values were obtained:
Gal4-RORγ-LBD = target: T1, Gal4-RORγ-LBD (Homo sapiens, UniProt P51449); assay: Gal4-RORγ Luciferase Reporter Assay in HEK-293T Cells; format: cell-based; settings: HEK-293 cells
T1 construct: expressed in transfected cells; host or cells: HEK-293 cells (pcDNA3.1neo plasmid)
T1 sequence (P51449 269-508 limits assumed): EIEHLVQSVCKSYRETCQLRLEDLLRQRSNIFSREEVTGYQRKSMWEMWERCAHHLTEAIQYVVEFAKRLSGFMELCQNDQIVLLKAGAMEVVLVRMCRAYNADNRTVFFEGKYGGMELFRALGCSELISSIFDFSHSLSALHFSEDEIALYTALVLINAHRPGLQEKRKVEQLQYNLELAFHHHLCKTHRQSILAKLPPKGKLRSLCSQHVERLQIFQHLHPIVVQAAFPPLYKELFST
How it was run: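 HEK-293 cells were transiently co-transfected with Gal4-RORγ-LBD and pGL4.31 Gal4-luciferase, with ursolic acid added at 2 μM final. Compounds were incubated overnight at 37° C. in 0.2% DMSO and luminescence read with One-Glo. Max Response is the upper plateau of a 4-parameter logistic fit, with signal lacking ursolic acid or compound set to 100.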

RORγ-LBD = target: T2, RORγ-LBD (Homo sapiens, UniProt P51449); assay: RORγ-Ligand Binding Domain (LBD) TR-FRET Assay; format: biochemical;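 as to TR-FRET Assay Max Response: 665/615 nm ratio relative to signal without ursolic acid or compound set at 100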
T2 construct: made in house; host or cells: SF9 cells (baculovirus)
T2 sequence (P51449 269-508 limits assumed): T1 sequence (P51449 269-508 limits assumed)
How it was run: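 Compounds, diluted in DMSO and then in assay buffer (1% DMSO final), were combined with His-tagged RORγ-LBD lysate at roughly 3 nM final and a 200 nM biotinylated SRC1 LXXLL peptide. Ursolic acid was included at 2 μM final. Coactivator recruitment was detected by TR-FRET.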

[1] = luciferase reporter, with 2 μM ursolic acid

`O=C(O)CCC[C@H]1CN(S(=O)(=O)c2cccc(C(F)(F)F)c2)c2cc(-c3cccc(F)c3F)ccc2O1` [Compound 21A, (S)-4-(6-(2,3-difluorophenyl)-4-((3-(trifluoromethyl)phenyl)-sulfonyl)-3,4-dihydro-2H-benzo[b][1,4]oxazin-2-yl)butanoic acid] was tested, and the EC50 (Gal4-RORγ-LBD; [1]) was under 0.5 µM, the “Gal4-RORγ Assay Max Response” value (Gal4-RORγ-LBD; [1]) was “** (The symbol “**” indicates a value in the range of greater than 90 to 150)” and the EC50 (RORγ-LBD) was under 0.5 µM. The “TR-FRET Assay Max Response” value (RORγ-LBD) was “**** (The symbol “****” indicates a value greater than 200)”.

`COc1cccc(-c2ccc3c(c2)N(S(=O)(=O)c2cccc(C(F)(F)F)c2)C[C@H](CCCC(=O)O)O3)c1` [Compound 21B, (S)-4-(6-(3-methoxyphenyl)-4-((3-(trifluoromethyl)phenyl)sulfonyl)-3,4-dihydro-2H-benzo[b][1,4]-oxazin-2-yl)butanoic acid] was tested, and the EC50 (Gal4-RORγ-LBD; [1]) was under 0.5 µM, the “Gal4-RORγ Assay Max Response” value (Gal4-RORγ-LBD; [1]) was “** (The symbol “**” indicates a value in the range of greater than 90 to 150)” and the EC50 (RORγ-LBD) was under 0.5 µM. The “TR-FRET Assay Max Response” value (RORγ-LBD) was “**** (The symbol “****” indicates a value greater than 200)”.

In the case of `O=C(O)CCC[C@H]1CN(S(=O)(=O)c2cccc(C(F)(F)F)c2)c2cc(-c3cccc(C(F)(F)F)n3)ccc2O1` [Compound 21C, (S)-4-(4-((3-(trifluoromethyl)-phenyl)sulfonyl)-6-(6-(trifluoromethyl)pyridin-2-yl)-3,4-dihydro-2H-benzo[b][1,4]oxazin-2-yl)butanoic acid], the EC50 (Gal4-RORγ-LBD; [1]) is reported as under 0.5 µM, the “Gal4-RORγ Assay Max Response” value (Gal4-RORγ-LBD; [1]) is reported as “*** (The symbol “***” indicates a value in the range of greater than 150 to 200)” and the EC50 (RORγ-LBD) is reported as under 0.5 µM. The “TR-FRET Assay Max Response” value (RORγ-LBD) was “**** (The symbol “****” indicates a value greater than 200)”.

For `O=C(O)CCC[C@H]1CN(S(=O)(=O)c2cccc(C(F)(F)F)c2)c2cc(-c3cc(F)cc(F)c3Cl)ccc2O1` [Compound 21D, (S)-4-(6-(2-chloro-3,5-difluorophenyl)-4-((3-(trifluoromethyl)phenyl)sulfonyl)-3,4-dihydro-2H-benzo[b][1,4]-oxazin-2-yl)butanoic acid], the EC50 (Gal4-RORγ-LBD; [1]) was under 0.5 µM, the “Gal4-RORγ Assay Max Response” value (Gal4-RORγ-LBD; [1]) was “*** (The symbol “***” indicates a value in the range of greater than 150 to 200)” and the EC50 (RORγ-LBD) was under 0.5 µM. The “TR-FRET Assay Max Response” value (RORγ-LBD) was “*** (The symbol “***” indicates a value in the range of greater than 150 to 200)”.

With `O=C(O)CC[C@H]1CN(S(=O)(=O)c2cccc(C(F)(F)F)c2)c2cc(-c3cccc(C(F)(F)F)n3)cc(F)c2O1` [Compound 22A, (S)-3-(8-fluoro-4-((3-(trifluoromethyl)phenyl)-sulfonyl)-6-(6-(trifluoromethyl)pyridin-2-yl)-3,4-dihydro-2H-benzo[b][1,4]oxazin-2-yl)propanoic acid] the EC50 (Gal4-RORγ-LBD; [1]) was under 0.5 µM, the “Gal4-RORγ Assay Max Response” value (Gal4-RORγ-LBD; [1]) was “** (The symbol “**” indicates a value in the range of greater than 90 to 150)” and the EC50 (RORγ-LBD) was under 0.5 µM. For the same molecule, the “TR-FRET Assay Max Response” value (RORγ-LBD) was “**** (The symbol “****” indicates a value greater than 200)”.

With `O=C(O)CC[C@H]1CN(S(=O)(=O)c2cccc(C(F)(F)F)c2)c2cc(-c3cccc(F)c3F)c(Cl)cc2O1` [Compound 22B, (S)-3-(7-chloro-6-(2,3-difluorophenyl)-4-((3-(trifluoromethyl)phenyl)sulfonyl)-3,4-dihydro-2H-benzo[b][1,4]-oxazin-2-yl)propanoic acid] the EC50 (Gal4-RORγ-LBD; [1]) was under 0.5 µM, the “Gal4-RORγ Assay Max Response” value (Gal4-RORγ-LBD; [1]) was “** (The symbol “**” indicates a value in the range of greater than 90 to 150)” and the EC50 (RORγ-LBD) was under 0.5 µM. The “TR-FRET Assay Max Response” value (RORγ-LBD) was “**** (The symbol “****” indicates a value greater than 200)”.

With `COc1cccc(-c2cc3c(cc2Cl)O[C@@H](CCC(=O)O)CN3S(=O)(=O)c2cccc(C(F)(F)F)c2)c1` [Compound 22C, (S)-3-(7-chloro-6-(3-methoxyphenyl)-4-((3-(trifluoromethyl)phenyl)sulfonyl)-3,4-dihydro-2H-benzo[b][1,4]-oxazin-2-yl)propanoic acid] the EC50 (Gal4-RORγ-LBD; [1]) was under 0.5 µM, the “Gal4-RORγ Assay Max Response” value (Gal4-RORγ-LBD; [1]) was “** (The symbol “**” indicates a value in the range of greater than 90 to 150)” and the EC50 (RORγ-LBD) was under 0.5 µM. The “TR-FRET Assay Max Response” value (RORγ-LBD) was “**** (The symbol “****” indicates a value greater than 200)”.

`COc1cccc(-c2cc(F)c3c(c2)N(S(=O)(=O)c2cccc(C(F)(F)F)c2)C[C@H](CCC(=O)O)O3)c1` [Compound 22D, (S)-3-(8-fluoro-6-(3-methoxyphenyl)-4-((3-(trifluoromethyl)phenyl)sulfonyl)-3,4-dihydro-2H-benzo[b][1,4]-oxazin-2-yl)propanoic acid] was tested, and the EC50 (Gal4-RORγ-LBD; [1]) was under 0.5 µM, the “Gal4-RORγ Assay Max Response” value (Gal4-RORγ-LBD; [1]) was “** (The symbol “**” indicates a value in the range of greater than 90 to 150)” and the EC50 (RORγ-LBD) was under 0.5 µM. The “TR-FRET Assay Max Response” value (RORγ-LBD) was “**** (The symbol “****” indicates a value greater than 200)”.

For `O=C(O)CC[C@H]1CN(S(=O)(=O)c2cccc(C(F)(F)F)c2)c2cc(-c3cccc(F)c3F)cc(F)c2O1` [Compound 22E, (S)-3-(6-(2,3-difluorophenyl)-8-fluoro-4-((3-(trifluoromethyl)phenyl)sulfonyl)-3,4-dihydro-2H-benzo[b][1,4]-oxazin-2-yl)propanoic acid], the EC50 (Gal4-RORγ-LBD; [1]) was under 0.5 µM, the “Gal4-RORγ Assay Max Response” value (Gal4-RORγ-LBD; [1]) was “** (The symbol “**” indicates a value in the range of greater than 90 to 150)” and the EC50 (RORγ-LBD) was under 0.5 µM. The “TR-FRET Assay Max Response” value (RORγ-LBD) was “**** (The symbol “****” indicates a value greater than 200)”.

`O=C(O)CC[C@H]1CN(S(=O)(=O)c2cccc(C(F)(F)F)c2)c2cc(-c3cc(F)cc(F)c3Cl)c(Cl)cc2O1` [Compound 22G, (S)-3-(7-chloro-6-(2-chloro-3,5-difluorophenyl)-4-((3-(trifluoromethyl)phenyl)sulfonyl)-3,4-dihydro-2H-benzo[b][1,4]-oxazin-2-yl)propanoic acid] was tested, and the EC50 (Gal4-RORγ-LBD; [1]) was under 0.5 µM, the “Gal4-RORγ Assay Max Response” value (Gal4-RORγ-LBD; [1]) was “** (The symbol “**” indicates a value in the range of greater than 90 to 150)” and the EC50 (RORγ-LBD) was under 0.5 µM. For the same molecule, the “TR-FRET Assay Max Response” value (RORγ-LBD) was “*** (The symbol “***” indicates a value in the range of greater than 150 to 200)”.

For `O=C(O)CC[C@H]1CN(S(=O)(=O)c2cccc(C(F)(F)F)c2)c2cc(-c3cc(F)cc(F)c3Cl)cc(F)c2O1` [Compound 22H, (S)-3-(6-(2-chloro-3,5-difluoro-phenyl)-8-fluoro-4-((3-(trifluoro-methyl)phenyl)sulfonyl)-3,4-dihydro-2H-benzo[b][1,4]oxazin-2-yl)propanoic acid], the EC50 (Gal4-RORγ-LBD; 2 μM ursolic acid) was under 0.5 µM, the “Gal4-RORγ Assay Max Response” value (Gal4-RORγ-LBD; 2 μM ursolic acid) was “** (The symbol “**” indicates a value in the range of greater than 90 to 150)” and the EC50 (RORγ-LBD) was under 0.5 µM. The “TR-FRET Assay Max Response” value (RORγ-LBD) was “*** (The symbol “***” indicates a value in the range of greater than 150 to 200)”.

`O=C(O)CC[C@H]1CN(S(=O)(=O)c2cccc(C(F)(F)F)c2)c2cc(-c3cccc(Cl)c3F)cc(F)c2O1` [Compound 22I, (S)-3-(6-(3-chloro-2-fluoro-phenyl)-8-fluoro-4-((3-(trifluoromethyl)phenyl)sulfonyl)-3,4-dihydro-2H-benzo[b][1,4]-oxazin-2-yl)propanoic acid] was tested, and the EC50 (Gal4-RORγ-LBD; 2 μM ursolic acid) was under 0.5 µM, the “Gal4-RORγ Assay Max Response” value (Gal4-RORγ-LBD; 2 μM ursolic acid) was “** (The symbol “**” indicates a value in the range of greater than 90 to 150)” and the EC50 (RORγ-LBD) was under 0.5 µM. The “TR-FRET Assay Max Response” value (RORγ-LBD) was “*** (The symbol “***” indicates a value in the range of greater than 150 to 200)”.

With `O=C(O)CC[C@H]1CN(S(=O)(=O)c2cccc(C(F)(F)F)c2)c2cc(-c3cccc(Cl)c3F)c(Cl)cc2O1` [Compound 22J, (S)-3-(7-chloro-6-(3-chloro-2-fluorophenyl)-4-((3-(trifluoro-methyl)phenyl)sulfonyl)-3,4-dihydro-2H-benzo[b][1,4]oxazin-2-yl)propanoic acid] the EC50 (Gal4-RORγ-LBD; 2 μM ursolic acid) was under 0.5 µM, the “Gal4-RORγ Assay Max Response” value (Gal4-RORγ-LBD; 2 μM ursolic acid) was “** (The symbol “**” indicates a value in the range of greater than 90 to 150)” and the EC50 (RORγ-LBD) was under 0.5 µM. For the same molecule, the “TR-FRET Assay Max Response” value (RORγ-LBD) was “*** (The symbol “***” indicates a value in the range of greater than 150 to 200)”.

With `O=C(O)CC[C@H]1CN(S(=O)(=O)c2cccc(C(F)(F)F)c2)c2cc(-c3cc(F)cc(F)c3)cc(F)c2O1` [Compound 22K, (S)-3-(6-(3,5-difluorophenyl)-8-fluoro-4-((3-(trifluoromethyl)-phenyl)sulfonyl)-3,4-dihydro-2H-benzo[b][1,4]oxazin-2-yl)propanoic acid] the EC50 (Gal4-RORγ-LBD; 2 μM ursolic acid) was under 0.5 µM, the “Gal4-RORγ Assay Max Response” value (Gal4-RORγ-LBD; 2 μM ursolic acid) was “** (The symbol “**” indicates a value in the range of greater than 90 to 150)” and the EC50 (RORγ-LBD) was under 0.5 µM. For the same molecule, the “TR-FRET Assay Max Response” value (RORγ-LBD) was “*** (The symbol “***” indicates a value in the range of greater than 150 to 200)”.

In the case of `O=C(CC[C@H]1CN(S(=O)(=O)c2cccc(C(F)(F)F)c2)c2cc(-c3cccc(Cl)c3)ccc2O1)N1CCS(=O)(=O)CC1` [Compound 23A, (S)-3-(6-(3-chlorophenyl)-4-((3-(trifluoromethyl)phenyl)sulfonyl)-3,4-dihydro-2H-benzo[b][1,4]-oxazin-2-yl)-1-(1,1-dioxidothio-morpholino)propan-1-one], the EC50 (Gal4-RORγ-LBD; [1]) is reported as under 0.5 µM, the “Gal4-RORγ Assay Max Response” value (Gal4-RORγ-LBD; [1]) is reported as “** (The symbol “**” indicates a value in the range of greater than 90 to 150)” and the EC50 (RORγ-LBD) is reported as under 0.5 µM. The “TR-FRET Assay Max Response” value (RORγ-LBD) was “**** (The symbol “****” indicates a value greater than 200)”.
